Source: publication PMC2715282 (Phytochemical analysis : PCA, 2009)

Target: 5-HT7 serotonin receptor (Homo sapiens, UniProt P34969)
Test: competitive radioligand binding versus [3H]LSD
Type: cell-based

5-HT7 serotonin receptor, sequence (P34969 whole entry): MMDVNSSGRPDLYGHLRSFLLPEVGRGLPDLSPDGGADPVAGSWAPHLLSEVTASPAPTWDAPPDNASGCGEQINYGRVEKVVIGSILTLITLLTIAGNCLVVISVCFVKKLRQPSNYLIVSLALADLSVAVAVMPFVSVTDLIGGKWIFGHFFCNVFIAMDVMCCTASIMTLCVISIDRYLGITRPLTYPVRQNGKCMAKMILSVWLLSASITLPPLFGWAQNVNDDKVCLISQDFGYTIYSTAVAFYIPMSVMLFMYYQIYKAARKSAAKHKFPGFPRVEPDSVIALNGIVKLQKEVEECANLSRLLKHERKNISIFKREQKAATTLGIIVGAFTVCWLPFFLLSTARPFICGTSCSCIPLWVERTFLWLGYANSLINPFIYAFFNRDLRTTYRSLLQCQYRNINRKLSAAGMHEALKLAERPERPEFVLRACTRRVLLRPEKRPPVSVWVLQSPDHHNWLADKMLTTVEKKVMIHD

Substance: cimicifugic acid KK [compound 4]
- IC50: 100 µM
